The values below come from patent US20250019335A1, “NOVEL QUINIZARIN DERIVATIVE AND PREPARATION METHOD THEREOF” (BENOBIO CO., LTD., priority 2021, published 2025).

The target in one experiment is T1, BRD2(BD2) (Homo sapiens, UniProt P25440).
T1 construct: a mixture of 100 nM GST BRD2 (BD1, BD2, BD1+BD2) and 100 nM biotinylated acetyl histone H4
The experiment in a line: Binding inhibition ability test for BRD2 protein (AlphaScreen, GST BRD2 / biotinylated acetyl histone H4 peptide). To be noted: 100 nM GST BRD2, 100 nM biotinylated acetyl histone H4 (Lys5, 8, 12, 16) peptide, Alpha Screen. As to the method: To confirm a binding inhibitory effect of a quinizarin derivative of the present disclosure on a BRD2 protein among BET proteins, the following experiment was performed.
First, a compound was diluted in 1:5 subdilution in an assay buffer from a 10 mM stock in dimethyl sulfoxide (DMSO) in a white Optiplate.
Then, a mixture of 100 nM GST BRD2 (BD1, BD2, BD1+BD2) and 100 nM biotinylated acetyl histone H4 (Lys5, 8, 12, 16) peptides was added to the diluent, and then each sample was shaking-cultured in the dark at 300 rpm for 30 minutes at room temperature.
Thereafter, signals were measured with a PerkinElmer Envision HTS Multilabel Reader using a PerkinElmer Alpha Screen protocol.
A general note: Alpha assays give light when donor and acceptor beads are brought close together.

A further experiment deals with FAS. The experiment can be described thus: Expression of liposynthesis factor FAS in palmitic acid-treated HepG2 cells (RT-PCR). It is filed as cell-based, human. To be noted: pretreated 1 μM to 10 μM, 100 μM palmitic acid 24 hours. Here is the method:
(§1) HepG2 cell lines, human liver epithelial cells, were incubated, pretreated with quinizarin and a substance of Example 2 (BBC0504) at concentrations of 1 μM to 10 μM, and treated with 100 μM palmitic acid (PA) for 24 hours to induce fatty liver at a cellular level. After 24 hours, the expression of lipogenesis-related genes SREBP-1 and FAS in cells in each sample was confirmed using RT-PCR. Each sample was added with a trizol reagent to extract total RNA, and the concentration was confirmed using a spectrophotometer. To synthesize cDNA for each gene, RT-PCR reaction was performed using primers targeting the SREBP-1 and FAS genes. β-actin was used as a control group, and after the reaction was completed, the detected cDNA product was confirmed by electrophoresis on a 1.0% agarose gel.
FIG. 14 illustrates a result of confirming FAS expression after treating fatty liver-induced cells with a quinizarin derivative at each concentration according to an embodiment of the present disclosure.

In the next experiment the test system is HepG2 cells. The experiment can be described thus: Lipogenesis inhibition in palmitic acid-induced fatty liver HepG2 cells (Oil red O staining). It is filed as cell-based, human. Conditions: pretreated 1 μM to 10 μM, 100 μM palmitic acid 24 hours. As to the method:
HepG2 cell lines, human liver epithelial cells, were incubated, pretreated with quinizarin and a substance of Example 2 (BBC0504) at concentrations of 1 μM to 10 μM, and treated with 100 μM palmitic acid (PA) for 24 hours to induce fatty liver at a cellular level. After 24 hours, the cells in each sample were immobilized for 1 hour with a phosphate-buffered salt solution containing 7% formaldehyde, washed with PBS, and stained with a 99% isopropanol solution containing 1% Oil red O for 10 minutes. The differentiation degree of adipocytes was measured by dissolving the stained Oil red O in isopropanol and measuring the absorbance at 510 nm.
Referring to FIG. 11, HepG2 cells, which are human liver epithelial cells, were treated with palmitic acid to induce fatty liver, and the ability to inhibit lipogenesis was confirmed at each concentration in Example 2.

Another experiment relates to SREBP-1. The experiment in a line: Expression of liposynthesis factor SREBP-1 in palmitic acid-treated HepG2 cells (RT-PCR). Conditions: pretreated 1 μM to 10 μM, 100 μM palmitic acid 24 hours. The experiment is classed as cell-based, human. As to the method: as §1
FIG. 13 illustrates a result of confirming SREBP-1 expression after treating fatty liver-induced cells for each concentration with a quinizarin derivative according to an embodiment of the present disclosure.

T1 sequence (P25440 344-453 limits assumed, species assumed): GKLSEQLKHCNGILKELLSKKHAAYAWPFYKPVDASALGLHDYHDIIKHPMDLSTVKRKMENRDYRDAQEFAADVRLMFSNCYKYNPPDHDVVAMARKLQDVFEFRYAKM

What is called IC50 is the concentration that gives 50% inhibition. A lower IC50 goes with greater potency. On to `O=C1c2ccccc2C(=O)c2c3c(cc(O)c21)OCCO3` [Example 5], for which the IC50 on BRD2(BD2) came to 2730 nM.

On to `O=C1c2ccc(-c3ccc(O)c(O)c3)cc2C(=O)c2c(O)ccc(O)c21` [Example 2], for which, in the experiment with FAS, the FAS gene expression result is on record as “reduced depending on a concentration”. For the same compound, the “lipogenesis amount (Oil red O absorbance at 510 nm)” value in the experiment on HepG2 cells is listed as “reduced in a concentration-dependent manner”. In the experiment on SREBP-1, the SREBP-1 gene expression entry is listed as “reduced depending on a concentration”. For the same compound, the IC50 at BRD2(BD2) came out at 4440 nM. The compound `O=C1c2ccccc2C(=O)c2c(OC3COC3)ccc(O)c21` [Example 4] came in with an IC50 on BRD2(BD2) of 3120 nM. The same measure, in the same setting: the same measure for `O=C1c2ccccc2C(=O)c2c(O)c(-c3ccc(O)c(O)c3)cc(O)c21` [Example 1]: 1740 nM.

In the case of `O=C1c2ccccc2C(=O)c2c(O)cc(-c3ccc(O)c(O)c3)cc21` [Example 3], at BRD2(BD2), the half-maximal inhibitory concentration (IC50) was determined as 1750 nM.
